Test results: US20260070911A1, “INHIBITORS OF TAM RECEPTORS” (National Health Research Institutes, priority 2022, published 2026)
pIC50: −log10 of the molar value.

Columns and labels:
Assay type in all cases: biochemical
MERTK = biological target: T1, MERTK (Homo sapiens, UniProt Q12866); experiment: MERTK enzymatic assay (Kinase Glo); settings: purified kinase, ATP 12 μM, read-out: MER Enzymatic Inhibition (%)
T1 sequence (Q12866 21-999): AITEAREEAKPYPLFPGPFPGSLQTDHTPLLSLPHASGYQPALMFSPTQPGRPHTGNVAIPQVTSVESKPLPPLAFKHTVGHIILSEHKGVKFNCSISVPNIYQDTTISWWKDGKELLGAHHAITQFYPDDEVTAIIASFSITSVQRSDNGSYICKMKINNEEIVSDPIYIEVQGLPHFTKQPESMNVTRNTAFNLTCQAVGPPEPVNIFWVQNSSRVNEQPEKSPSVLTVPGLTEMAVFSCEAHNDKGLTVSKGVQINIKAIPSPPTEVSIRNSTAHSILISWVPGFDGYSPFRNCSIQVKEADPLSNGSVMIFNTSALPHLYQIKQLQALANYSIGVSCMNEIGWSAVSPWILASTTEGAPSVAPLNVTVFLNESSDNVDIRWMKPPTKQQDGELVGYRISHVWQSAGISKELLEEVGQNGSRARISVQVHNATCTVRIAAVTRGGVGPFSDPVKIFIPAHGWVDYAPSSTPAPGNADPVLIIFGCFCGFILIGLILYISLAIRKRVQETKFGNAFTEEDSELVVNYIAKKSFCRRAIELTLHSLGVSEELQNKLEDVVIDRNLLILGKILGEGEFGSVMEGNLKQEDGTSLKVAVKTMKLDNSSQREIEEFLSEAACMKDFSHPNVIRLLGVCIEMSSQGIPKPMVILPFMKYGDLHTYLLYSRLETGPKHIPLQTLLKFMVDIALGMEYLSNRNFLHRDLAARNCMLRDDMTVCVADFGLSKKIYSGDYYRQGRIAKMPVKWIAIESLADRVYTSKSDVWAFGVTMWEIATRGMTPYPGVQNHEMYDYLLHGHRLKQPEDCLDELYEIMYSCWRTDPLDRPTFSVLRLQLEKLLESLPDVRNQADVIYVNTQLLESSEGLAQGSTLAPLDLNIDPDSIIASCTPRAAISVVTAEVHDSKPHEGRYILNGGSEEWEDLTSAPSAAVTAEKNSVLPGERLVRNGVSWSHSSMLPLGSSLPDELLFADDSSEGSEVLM

AXL = biological target: T2, AXL (Homo sapiens, UniProt P30530); experiment: AXL enzymatic assay (ADP-Glo); settings: purified kinase, ATP 50 μM, read-out: AXL Enzymatic Inhibition (%)
T2 sequence (P30530 26-894): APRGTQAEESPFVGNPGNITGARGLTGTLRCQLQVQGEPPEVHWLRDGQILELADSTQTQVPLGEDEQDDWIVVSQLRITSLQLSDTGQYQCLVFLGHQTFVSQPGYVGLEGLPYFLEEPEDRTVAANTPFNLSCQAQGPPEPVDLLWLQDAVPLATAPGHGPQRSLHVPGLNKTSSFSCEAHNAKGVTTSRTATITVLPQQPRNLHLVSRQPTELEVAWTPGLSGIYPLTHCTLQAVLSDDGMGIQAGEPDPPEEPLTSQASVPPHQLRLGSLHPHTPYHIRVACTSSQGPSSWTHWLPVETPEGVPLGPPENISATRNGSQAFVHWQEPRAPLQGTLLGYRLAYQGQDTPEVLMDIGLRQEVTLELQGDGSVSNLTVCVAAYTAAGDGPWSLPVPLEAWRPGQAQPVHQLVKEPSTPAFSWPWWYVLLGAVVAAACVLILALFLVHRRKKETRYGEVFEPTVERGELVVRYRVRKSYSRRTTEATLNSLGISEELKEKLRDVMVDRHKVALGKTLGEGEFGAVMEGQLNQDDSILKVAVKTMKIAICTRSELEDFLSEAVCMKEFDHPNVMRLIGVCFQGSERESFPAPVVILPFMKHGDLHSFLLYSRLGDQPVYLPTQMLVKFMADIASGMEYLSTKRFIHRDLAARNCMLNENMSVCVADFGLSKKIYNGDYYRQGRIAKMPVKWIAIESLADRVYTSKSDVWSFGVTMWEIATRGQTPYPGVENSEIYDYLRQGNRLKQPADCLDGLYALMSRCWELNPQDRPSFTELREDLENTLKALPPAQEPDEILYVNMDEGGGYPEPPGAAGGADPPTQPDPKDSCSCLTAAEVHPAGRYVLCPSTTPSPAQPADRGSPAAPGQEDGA

MER/AXL = experiment: Dual MER/AXL inhibition (enzymatic); settings: class for both MER and AXL

Row | Structure (SMILES) | pIC50 (MERTK) | pIC50 (AXL) | pIC50 (MER/AXL)
1 | Cn1cc(-c2oc3ncnc(Oc4ccc(NC(=O)c5cccn(-c6ccc(F)nc6)c5=O)cc4)c3c2-c2cccc(N)c2)cn1 [Compound 80] | 7.00 to 7.70 | > 7.70 | 7.00 to 7.70
2 | CCOc1ccn(-c2ccc(F)cc2)c(=O)c1C(=O)Nc1ccc(Oc2ncnc3[nH]ccc23)cc1 [Compound 6] | 4.30 to 7.00 | 4.30 to 7.00 | 4.30 to 7.00
3 | Cn1cc(-c2oc3ncnc(Oc4ccc(NC(=O)c5cc6c(n(-c7ccccc7)c5=O)CCCC6=O)cc4)c3c2-c2cccc(N)c2)cn1 [Compound 61] | 7.00 to 7.70 | > 7.70 | 7.00 to 7.70
4 | O=C(Nc1ccc(Oc2ncnc3[nH]c(-c4ccccc4)cc23)cc1)c1cccn(-c2ccc(F)cc2)c1=O [Compound 76] | 4.30 to 7.00 | 4.30 to 7.00 | 4.30 to 7.00
5 | CC(=O)Nc1cccc(-c2c(-c3cc[nH]n3)oc3ncnc(Oc4ccc(NC(=O)c5cccn(-c6ccc(F)cc6)c5=O)cc4)c23)c1 [Compound 67] | 4.30 to 7.00 | > 7.70 | 4.30 to 7.00
6 | CN(C)Cc1cccc(-c2c(-c3cnn(C)c3)oc3ncnc(Oc4ccc(NC(=O)c5cccn(-c6ccc(F)cc6F)c5=O)cc4)c23)c1 [Compound 93] | 7.00 to 7.70 | > 7.70 | 7.00 to 7.70
7 | Cc1cc(F)ccc1-n1cccc(C(=O)Nc2ccc(Oc3ncnc4oc(-c5cnn(C)c5)c(-c5cccc(CN(C)C)c5)c34)cc2)c1=O [Compound 98] | 7.00 to 7.70 | > 7.70 | 7.00 to 7.70
8 | COc1nn(-c2ccc(C)cc2)cc1C(=O)Nc1ccc(Oc2ncnc3oc(-c4cnn(C)c4)c(-c4cccc(N)c4)c23)cc1 [Compound 136] | 4.30 to 7.00 | 4.30 to 7.00 | 4.30 to 7.00
9 | Cn1cc(-c2oc3ncnc(Oc4ccc(NC(=O)c5cccn(C)c5=O)cc4)c3c2-c2cccc(N)c2)cn1 [Compound 66] | 4.30 to 7.00 | 4.30 to 7.00 | 4.30 to 7.00
10 | O=C(Nc1ccc(Oc2ncnc3[nH]cc(C#Cc4ccccc4)c23)cc1)c1cccn(-c2ccc(F)cc2)c1=O [Compound 18] | 4.30 to 7.00 | > 7.70 | 4.30 to 7.00
11 | O=C(Nc1ccc(Oc2ncnc3[nH]cc(-c4cccnc4)c23)cc1)c1cccn(-c2ccc(F)cc2)c1=O [Compound 16] | 4.30 to 7.00 | > 7.70 | 4.30 to 7.00
12 | CC(=O)Nc1cccc(-c2c(C)oc3ncnc(Oc4ccc(NC(=O)c5cccn(-c6ccc(F)cc6)c5=O)cc4)c23)c1 [Compound 50] | 4.30 to 7.00 | 7.00 to 7.70 | 4.30 to 7.00
13 | Cn1cc(-c2oc3ncnc(Oc4ccc(NC(=O)c5cc(-c6ccc(F)cc6)on5)cc4)c3c2-c2cccc(N)c2)cn1 [Compound 115] | 4.30 to 7.00 | 4.30 to 7.00 | 4.30 to 7.00
14 | CC(=O)Nc1cccc(-c2c(-c3cnn(C)c3)oc3ncnc(Oc4ccc(NC(=O)c5ccc(C)n(-c6ccc(F)cc6)c5=O)cc4)c23)c1 [Compound 70] | > 7.70 | > 7.70 | > 7.70
15 | C=CC(=O)Nc1cccc(-c2c(-c3cnn(C)c3)oc3ncnc(Oc4ccc(NC(=O)c5cccn(-c6ccc(F)cc6)c5=O)cc4)c23)c1 [Compound 12] | 4.30 to 7.00 | 4.30 to 7.00 | 4.30 to 7.00
16 | CC(=O)Nc1cccc(-c2c(-c3cnn(C)c3)oc3ncnc(Oc4ccc(NC(=O)c5cccn(-c6ccc(F)cc6)c5=O)nc4)c23)c1 [Compound 53] | 7.00 to 7.70 | 7.00 to 7.70 | 7.00 to 7.70
